Measured values from patent publication US9145434B2 (Boehringer Ingelheim International GmbH, priority 2012, dated 2015).

Tests used:
Assay type in all cases: physicochemical
[1] = physical and chemical stability of the crystalline complex; conditions: under various environmental conditions and during the production of a medicament
[2] = mechanical stability of the crystals (grinding); conditions: allows grinding of the crystals
[3] = tendency to absorb moisture

Question: With N#Cc1ccc([C@@H]2O[C@H](CO)[C@@H](O)[C@H](O)[C@H]2O)cc1Cc1ccc(C2CC2)cc1.O=C(O)[C@@H]1CCCN1 [crystalline complex] as the compound, how does the “physical and chemical stability” value [1] read?
Answer: The value was “high physical and chemical stability”.

Question: And the mechanical stability [2]?
Answer: The mechanical stability was “high mechanical stability”.

Question: And the “tendency to absorb moisture” value [3]?
Answer: Its value is “does not show a high tendency to absorb moisture”.
